According to patent US4694008A, “Chemical compounds” (Smith Kline & French Laboratories Limited, priority 1984, dated 1987):

Experiments:
histamine H2 -receptors [1] = molecular target: T1, histamine H2 -receptors (Rattus norvegicus, UniProt P25102); assay: inhibition of histamine-stimulated secretion of gastric acid, lumen-perfused stomachs of rats anaesthetised with urethane; format: in vivo; details: iv, read-out: ED50 values in the lumen-perfused rat test
T1 construct: histamine-stimulated secretion of gastric acid from the lumen-perfused stomachs of rats anaesthetised with urethane; from tissue; host or cells: stomach of the anaesthetised rat (in vivo, lumen-perfused)
T1 sequence (P25102 whole entry, the tested form may be a part): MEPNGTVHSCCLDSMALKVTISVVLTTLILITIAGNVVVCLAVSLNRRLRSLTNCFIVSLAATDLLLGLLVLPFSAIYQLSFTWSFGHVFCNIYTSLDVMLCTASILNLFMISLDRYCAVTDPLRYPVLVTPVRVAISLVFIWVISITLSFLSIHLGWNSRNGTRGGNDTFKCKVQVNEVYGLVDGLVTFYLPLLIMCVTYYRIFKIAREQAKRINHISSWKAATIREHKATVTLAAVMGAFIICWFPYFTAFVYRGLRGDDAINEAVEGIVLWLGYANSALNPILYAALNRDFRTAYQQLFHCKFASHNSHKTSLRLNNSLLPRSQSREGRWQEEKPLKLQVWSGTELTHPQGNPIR
Excerpt: These are actions of histamine which, according to Ash and Schild, Brit. J. Pharmac. Chemother. 27 247 (1966), are not mediated by histamine H1 -receptors.
(§1) The measurement of inhibition of histamine-stimulated secretion of gastric acid from the lumen-perfused stomachs of rats anaesthetised with urethane, and the measurement of inhibition of histamine-induced tachycardia in the isolated guinea pig right atrium, are detailed in U.S. Pat. No. 4,385,058.

histamine H2 -receptors [2] = assay: inhibition of histamine-induced tachycardia in the isolated guinea pig right atrium
Excerpt: as §1

O=c1[nH]c(CCCOc2cccc(CN3CCCCC3)c2)ncc1OCc1ccccc1 [Example 1, 2-[3-[3-(Piperidinomethyl)phenoxy]propyl]-5-benzyloxypyrimidin-4-one]
ED50 (histamine H2 -receptors [1]): < 0.1 µmol/kg
pA2 values in the guinea pig atrium test (histamine H2 -receptors [2]): more than seven

COc1cnc(NCCCOc2cccc(CN3CCCCC3)c2)[nH]c1=O [Example 5, 2-[3-[3-(Piperidinomethyl)phenoxy]propylamino]-5-methoxypyrimidin-4-one]
ED50 (histamine H2 -receptors [1]): < 0.1 µmol/kg
pA2 values in the guinea pig atrium test (histamine H2 -receptors [2]): more than seven
